Consider three molecules from patent US20030144308A1, “Fructose 1,6-bisphosphatase inhibitors” (priority 2001, published 2003).

Broadly, the melting point is the temperature of the solid-liquid transition. In general, IC50 refers to the concentration at which inhibition is half-maximal.

The test system of series [1] is another carcinoma which does not express the EGF receptor. To be noted: mouse, in vivo; cited from earlier work.
Series [2] has as its system transplanted human mammary carcinoma which expresses epidermal growth factor receptor tyrosine kinase (EGFR). To be noted: athymic nude mice; cited from earlier work.
Series [3] deals with recombinant human F16BPase (Homo sapiens, UniProt P09467). To be noted: read-out: IC50 against the human enzyme; allosteric inhibitor; 40 minutes at room temperature without preincubation of compound with enzyme.
Sequence of recombinant human F16BPase (P09467 whole entry): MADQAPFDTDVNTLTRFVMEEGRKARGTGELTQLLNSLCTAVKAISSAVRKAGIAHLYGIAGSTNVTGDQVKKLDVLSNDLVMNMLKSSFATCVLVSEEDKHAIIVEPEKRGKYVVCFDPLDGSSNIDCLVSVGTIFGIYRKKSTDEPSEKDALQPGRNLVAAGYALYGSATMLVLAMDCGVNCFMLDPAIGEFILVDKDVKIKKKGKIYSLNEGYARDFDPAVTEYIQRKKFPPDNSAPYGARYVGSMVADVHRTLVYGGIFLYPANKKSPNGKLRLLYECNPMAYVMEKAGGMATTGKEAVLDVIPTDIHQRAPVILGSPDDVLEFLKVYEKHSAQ
Experimental: Fructose-1,6-bisphosphatase Enzyme Assay: Fructose-1,6-bisphosphatase (F16BP) is assayed by measuring its ability to hydrolyze inorganic phosphate from fructose-1,6-bisphosphate using a modification of a reported method (Biochem. J. 1994, 298, 395). […] The final solution consists of 50 mM HEPES (catalog #H7523, Sigma Chemical Company, PO Box 14508, St. Louis, Mo. 63178) pH=7.2, 100 mM KCl (Sigma catalog #P3911), 2 mM MgCI2 (Sigma catalog #M9272), 2 mM EGTA (Sigma catalog #E0396), 1 mM DTT (Sigma atalog #D5545), and 500 1 μM fructose-1,6-bisphosphate (Sigma catalog #752-1). The solution is incubated for 40 minutes at room temperature without preincubation of compound with enzyme. The phosphate released by the enzyme is measured spectrophotometrically using a Titertek Multiscann MCC 340 (Titertek, 330 Wynn Drive, Huntsville, Ala. 35805) at 620 nm, after allowing the phosphate to form a complex for 10 minutes after the addition of 150 μL of ammonium molybdate/malachite green (AM/MG) solution. To prepare the AM/MG solution, one volume of 4.2% ammonium molybdate (w/v, Sigma catalog #A7302) in 4 molar aqueous hydrochloric acid is added to three volumes of 0.045% malachite green (w/v, Sigma catalog #M9636) and 0.01% Tween®-20 (v/v, Sigma catalog #P1379) in water. […]

SMILES strings stand for the structures.

On to `CCOc1cc2nc(CCl)nc(Nc3cccc(-c4csc(C)n4)c3)c2cc1OCC.Cl`, for which the melting point was in the range of 252 to 256 °C.
In the case of `O=CN/C=C/c1cc(O)ccc1O` [erbstatin], the “growth of carcinoma which does not express the EGF receptor” value in series [1] is “without effect on the growth”. Further, the “growth of transplanted human mammary carcinoma expressing EGFR” value in series [2] is “selectively attenuates the growth”.
With `Nc1ncnc2c1ncn2[C@@H]1O[C@H](COP(=O)(O)O)[C@@H](O)[C@H]1O` [AMP, adenosine 5′-monophosphate], the IC50 in series [3] amounted to 800 nM.
